We go through 2 compounds from US8598163B2, “Derivatives of [1,3]Oxazin-2-one useful for the treatment of metabolic diseases such as lipid disorders” (Vitae Pharmaceuticals, Inc., priority 2009, dated 2013).

Experiment [1] has as its target T1, 11β-HSD1 (Homo sapiens (Human), UniProt P28845). Conditions: Biological Test 3, human liver microsomes, HTRF. In general terms: Liver microsomes are vesicles of endoplasmic reticulum, rich in cytochrome P450 enzymes.
Protocol: Briefly, compounds were incubated for 1 hour at 37° C. in Tris buffer (20 mM tris, 5 mM EDTA, pH 6.0) containing NADPH (200 μM) and cortisone (80 nM). Cortisol generated in the reaction is then detected with a competitive immunoassay, involving two HTRF conjugates: cortisol linked to XL665 and anti-cortisol antibody labeled with Europium cryptate. The incubation period for detection reaction was typically 2 hours. […] The ratio of the two emission signals was then calculated (Em665*10000/Em615). […] Each assay also contained a calibration curve with cortisol to transform the fluorescent data into cortisol concentrations. Percent inhibition of each compound was determined relative to the carbenoxolone signal.
For experiment [2], the target named is T1, 11β-HSD1. The following applies: comparator compounds; IC50 in Biological Test Example 4 divided by IC50 in Biological Test Example 1.
Protocol: The assay began by dispensing 49 μl of microsome solution into 96-well polypropylene plates and adding 1 μl of the test compounds in DMSO, previously diluted in half-log increments (8 points) starting at 1.0 mM. […] The plates were incubated for 120 minutes at rt, and the reaction was quenched with the addition of 100 μl acetonitrile with 20 mM cortisone and 20 mM cortisol. After a ten minute incubation at rt, 100 μl of each well was filtered through a MultiScreen HTS, HV filter plate (Millipore) and diluted with 100 μl of reaction buffer without human plasma.

T1 sequence (P28845 whole entry): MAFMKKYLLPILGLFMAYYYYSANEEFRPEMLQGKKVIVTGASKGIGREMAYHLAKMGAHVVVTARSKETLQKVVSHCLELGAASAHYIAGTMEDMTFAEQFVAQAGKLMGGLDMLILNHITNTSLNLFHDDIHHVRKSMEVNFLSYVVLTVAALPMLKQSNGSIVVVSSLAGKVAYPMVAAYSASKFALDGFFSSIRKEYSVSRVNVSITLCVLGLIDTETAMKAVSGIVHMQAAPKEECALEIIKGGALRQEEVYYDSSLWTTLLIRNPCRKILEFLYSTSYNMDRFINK

As for `Cc1nc2cc(-c3ccc([C@H](C)N4CC[C@](CC(C)(C)O)(c5ccccc5)OC4=O)cc3)ccn2n1` [Example 7, (S)-6-(2-Hydroxy-2-methyl-propyl)-3-{(5)-1-[4-(2-methyl-[1,2,4]triazolopyridin-7-yl)-phenyl]-ethyl}-6-phenyl-[1,3]oxazinan-2-one], the IC50 – broadly, the concentration that inhibits the measured activity by half – in experiment [1] stood at 0.031 µM. Besides, the Shift in experiment [2] was 42.43.
For `COc1nc2ccc(-c3ccc([C@H](C)N4CC[C@](CC(C)(C)O)(c5ccccc5)OC4=O)cc3)cn2n1` [Example 9, (S)-6-(2-Hydroxy-2-methyl-propyl)-3-{(S)-1-[4-(2-methoxy-[1,2,4]triazolo[1,5-a]pyridin-6-yl)-phenyl]-ethyl}-6-phenyl-[1,3]oxazinan-2-one], in that order: 0.054 µM and 21.45.
